In this assay the target is T1, BTK (Homo sapiens, UniProt Q06187).
T1 construct: purchased Upstate 14-552
In words: In vitro BTK kinase assay: BTK-POLYGAT-LS ASSAY. Type of assay: biochemical. As to conditions: ATP 10 uM. Summed up:
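BTK phosphorylation of polyGAT (100 nM final) with ATP at 10 μM final, 10 mM Tris-HCl pH 7.5 kinase buffer, quenched by EDTA after 30 min. Potency given as IC50.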

Data on 52 molecules can be found in patent US9029359B2, “Heteroaryl Btk inhibitors” (Biogen Idec MA, Inc., priority 2009, dated 2015).

T1 sequence (Q06187 whole entry): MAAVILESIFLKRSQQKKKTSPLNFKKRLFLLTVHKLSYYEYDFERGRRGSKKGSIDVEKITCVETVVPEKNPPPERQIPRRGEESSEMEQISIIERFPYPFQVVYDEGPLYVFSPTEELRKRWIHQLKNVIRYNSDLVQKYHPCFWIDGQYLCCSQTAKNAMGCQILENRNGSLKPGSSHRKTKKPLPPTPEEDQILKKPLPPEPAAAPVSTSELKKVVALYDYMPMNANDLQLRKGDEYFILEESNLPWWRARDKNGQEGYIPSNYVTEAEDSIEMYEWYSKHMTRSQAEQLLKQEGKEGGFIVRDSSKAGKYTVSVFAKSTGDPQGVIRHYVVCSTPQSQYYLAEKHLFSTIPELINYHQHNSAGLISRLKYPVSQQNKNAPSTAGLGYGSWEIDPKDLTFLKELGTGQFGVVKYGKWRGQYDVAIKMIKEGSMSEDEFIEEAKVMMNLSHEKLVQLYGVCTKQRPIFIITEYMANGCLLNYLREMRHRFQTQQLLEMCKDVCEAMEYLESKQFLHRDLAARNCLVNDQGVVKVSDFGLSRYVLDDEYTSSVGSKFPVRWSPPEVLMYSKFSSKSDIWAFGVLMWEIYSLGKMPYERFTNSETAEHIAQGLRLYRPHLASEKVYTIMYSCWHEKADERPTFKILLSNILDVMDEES

On to `O=C(CNc1cccc(-n2cncn2)c1)N[C@@H]1CCCN(c2ncnc3[nH]ccc23)C1` [Example 395], for which the 50% inhibitory concentration (IC50) was 1000 to 10000 nM.

Turning to `O=C(CNc1cccc(-c2cc[nH]n2)c1)N[C@@H]1CCCN(c2ncnc3[nH]ccc23)C1` [Example 396], the half-inhibitory concentration (IC50) lay within 1000 to 10000 nM. Then `CC(O)c1cccc(NCC(=O)N[C@@H]2CCCN(c3ncnc4[nH]ccc34)C2)c1` (stereo partly shown) [Example 397], with 1000 to 10000 nM; and `Cc1c(O)cccc1NCC(=O)N[C@@H]1CCCN(c2ncnc3[nH]ccc23)C1` [Example 398], with 1000 to 10000 nM.

As to `O=C(CNc1cccc(-c2nnn[nH]2)c1)N[C@@H]1CCCN(c2ncnc3[nH]ccc23)C1` [Example 400], the IC50 lay in the range of 1000 to 10000 nM. Then `O=C(CNc1cccc(O)c1)N[C@@H]1CCCN(c2ncnc3[nH]ccc23)C1` [Example 401], with 1000 to 10000 nM; and `CCc1cccc(C)c1NCC(=O)N[C@@H]1CCCN(c2ncnc3[nH]ccc23)C1` [Example 403], with 1000 to 10000 nM. With `O=C(CNc1cccc2ncccc12)N[C@@H]1CCCN(c2ncnc3[nH]ccc23)C1` [Example 405], the IC50 is 1000 to 10000 nM. Then `O=C(CNc1ccc2[nH]ncc2c1)N[C@@H]1CCCN(c2ncnc3[nH]ccc23)C1` [Example 406], with 1000 to 10000 nM. Then `Cc1cccc(Cl)c1NCC(=O)N[C@@H]1CCCN(c2ncnc3[nH]ccc23)C1` [Example 407], with 1000 to 10000 nM; and `C[C@@H](O)[C@@H](Nc1cc(F)cc(Cl)c1)C(=O)N[C@@H]1CCCN(c2ncnc3[nH]ccc23)C1` [Example 408], with 1000 to 10000 nM; and `N#Cc1c(F)cccc1NCC(=O)N[C@@H]1CCCN(c2ncnc3[nH]ccc23)C1` [Example 409], with 1000 to 10000 nM.

Turning to `O=C(CNc1c(F)ccc(F)c1F)N[C@@H]1CCCN(c2ncnc3[nH]ccc23)C1` [Example 411], the half-inhibitory concentration (IC50) was 100 to 999 nM.

Consider `N#Cc1ccc(NCC(=O)N[C@@H]2CCCN(c3ncnc4[nH]ccc34)C2)cc1` [Example 412], for which the IC50 was 1000 to 10000 nM.

`O=C(CNc1ccc(F)cc1)N[C@@H]1CCCN(c2ncnc3[nH]ccc23)C1` [Example 413]: the IC50 is 100 to 999 nM. In the case of `CCOc1ccc(OCC)c(NCC(=O)N[C@@H]2CCCN(c3ncnc4[nH]ccc34)C2)c1` [Example 414] it was 1000 to 10000 nM; in that of `Cc1cc(NCC(=O)N[C@@H]2CCCN(c3ncnc4[nH]ccc34)C2)ccc1Cl` [Example 415], 1000 to 10000 nM. For the molecule `CC(C)(C)c1ccccc1NCC(=O)N[C@@H]1CCCN(c2ncnc3[nH]ccc23)C1` [Example 416], the IC50 fell in the range of 1000 to 10000 nM. `O=C(CNc1ccc(F)cc1Cl)N[C@@H]1CCCN(c2ncnc3[nH]ccc23)C1` [Example 417] came in with an IC50 of 100 to 999 nM. In the case of `O=C(CNc1ccc(Cl)cc1F)N[C@@H]1CCCN(c2ncnc3[nH]ccc23)C1` [Example 418] it was 1000 to 10000 nM.

In the case of `Cc1cc(Cl)ccc1NCC(=O)N[C@@H]1CCCN(c2ncnc3[nH]ccc23)C1` [Example 419], the IC50 was 100 to 999 nM. `Cc1ccc(NCC(=O)N[C@@H]2CCCN(c3ncnc4[nH]ccc34)C2)c(F)c1` [Example 420] yielded an IC50 of 1000 to 10000 nM. Then `Cc1cccc(C)c1NCC(=O)N[C@@H]1CCCN(c2ncnc3[nH]ccc23)C1` [Example 421], with 1000 to 10000 nM; and `O=C(CNc1cccc(F)c1F)N[C@@H]1CCCN(c2ncnc3[nH]ccc23)C1` [Example 422], with 100 to 999 nM. Then `O=C(CNc1cc(C(F)(F)F)ccc1N1CCCCC1)N[C@@H]1CCCN(c2ncnc3[nH]ccc23)C1` [Example 423], with 1000 to 10000 nM. In the case of `O=C(N[C@@H]1CCCN(c2ncnc3[nH]ccc23)C1)[C@@H](CO)Nc1cc(F)cc(Cl)c1` [Example 424] it was 1000 to 10000 nM; in that of `O=C(O)CC[C@@H](Nc1ccccc1)C(=O)N[C@@H]1CCCN(c2ncnc3[nH]ccc23)C1` [Example 425], 1000 to 10000 nM. `Cc1ccc(NCC(=O)N[C@@H]2CCCN(c3ncnc4[nH]ccc34)C2)cc1` [Example 426] yielded an IC50 of 100 to 999 nM. Then `Cc1ccc(C)c(NCC(=O)N[C@@H]2CCCN(c3ncnc4[nH]ccc34)C2)c1` [Example 427], with 1000 to 10000 nM; and `Cc1cc(C)c(NCC(=O)N[C@@H]2CCCN(c3ncnc4[nH]ccc34)C2)c(C)c1` [Example 428], with 1000 to 10000 nM; and `O=C(CNc1cccc(N2CCCCC2)c1)N[C@@H]1CCCN(c2ncnc3[nH]ccc23)C1` [Example 429], with 1000 to 10000 nM. In the case of `Cc1ccc(NCC(=O)N[C@@H]2CCCN(c3ncnc4[nH]ccc34)C2)c(Cl)c1` [Example 430] it was 1000 to 10000 nM; in that of `O=C(CNC(Cc1ccccc1)c1ccccc1)N[C@@H]1CCCN(c2ncnc3[nH]ccc23)C1` (stereo partly shown) [Example 431], 1000 to 10000 nM.

Molecule `O=C(CNc1cccc([N+](=O)[O-])c1)N[C@@H]1CCCN(c2ncnc3[nH]ccc23)C1` [Example 432] yielded a half-maximal inhibitory concentration (IC50) of 1000 to 10000 nM. In the case of `N#Cc1ccccc1NCC(=O)N[C@@H]1CCCN(c2ncnc3[nH]ccc23)C1` [Example 433] it was 1000 to 10000 nM; in that of `NC(=O)c1cccc(NCC(=O)N[C@@H]2CCCN(c3ncnc4[nH]ccc34)C2)c1` [Example 434], 1000 to 10000 nM; in that of `O=C(CNc1cccc(-c2cnco2)c1)N[C@@H]1CCCN(c2ncnc3[nH]ccc23)C1` [Example 435], 1000 to 10000 nM. In the case of `Cc1nccc(-c2cccc(NCC(=O)N[C@@H]3CCCN(c4ncnc5[nH]ccc45)C3)c2)n1` [Example 436] it was 1000 to 10000 nM; in that of `O=C(CNc1cc(C(F)(F)F)ccc1F)N[C@@H]1CCCN(c2ncnc3[nH]ccc23)C1` [Example 437], 1000 to 10000 nM.

Take `O=C(CNc1c(F)cc(F)cc1F)N[C@@H]1CCCN(c2ncnc3[nH]ccc23)C1` [Example 438]: the IC50 lay in the range of 1000 to 10000 nM. `CC(C)(C)c1cccc(NCC(=O)N[C@@H]2CCCN(c3ncnc4[nH]ccc34)C2)c1` [Example 440] showed an IC50 of 100 to 999 nM.

In turn, `O=C(CNc1cccc(OC(F)(F)C(F)F)c1)N[C@@H]1CCCN(c2ncnc3[nH]ccc23)C1` [Example 441] registered an IC50 of 100 to 999 nM.

Regarding `COc1ccc(C(C)(C)C)cc1NCC(=O)N[C@@H]1CCCN(c2ncnc3[nH]ccc23)C1` [Example 442], the IC50 was 1000 to 10000 nM.

The molecule `CC(C)c1ccc(NCC(=O)N[C@@H]2CCCN(c3ncnc4[nH]ccc34)C2)cc1` [Example 443] gave a half-inhibitory concentration (IC50) of 1000 to 10000 nM. Then `O=C(CNc1ccccc1N1CCOCC1)N[C@@H]1CCCN(c2ncnc3[nH]ccc23)C1` [Example 444], with 1000 to 10000 nM. In the case of `O=C(CNc1ccc(F)c(F)c1F)N[C@@H]1CCCN(c2ncnc3[nH]ccc23)C1` [Example 445] it was 100 to 999 nM; in that of `O=C(CNc1cc(F)ccc1F)N[C@@H]1CCCN(c2ncnc3[nH]ccc23)C1` [Example 446], 100 to 999 nM. With `O=C(NC1CCCN(c2ncnc3[nH]ccc23)C1)[C@@H](CCCO)Nc1ccccc1` (stereo partly shown) [Example 447], the IC50 is 1000 to 10000 nM. Then `O=C(N[C@@H]1CCCN(c2ncnc3[nH]ccc23)C1)C(Nc1ccccc1)C(F)(F)F` (stereo partly shown) [Example 449], with 1000 to 10000 nM; and `CS(=O)(=O)c1ccccc1NCC(=O)N[C@@H]1CCCN(c2ncnc3[nH]ccc23)C1` [Example 450], with 1000 to 10000 nM; and `COc1ccc(C)c(NCC(=O)N[C@@H]2CCCN(c3ncnc4[nH]ccc34)C2)c1` [Example 451], with 1000 to 10000 nM. Consider `COc1cccc(C)c1NCC(=O)N[C@@H]1CCCN(c2ncnc3[nH]ccc23)C1` [Example 452], for which the IC50 was in the range of 1000 to 10000 nM.

Usually IC50 stands for the concentration at which inhibition is half-maximal. A lower IC50 goes with inhibition by little substance.
